In article PMC9000625, “Target Design of Novel Histone Deacetylase 6 Selective Inhibitors with 2-Mercaptoquinazolinone as the Cap Moiety” (Molecules, 2022):
Values joined by “and” are separate entries in the source; they are usually repeats but may differ in a detail not shown here. Identical values can stand only once. Like-named read-outs stand apart in the source and are kept apart here. Each block holds one molecule with its values, some of them ahead of it.

Tests used:
[1] = system: MCF-7 cells; experiment: Antiproliferative assay (CELLOMAX viability), MCF-7; format: cell-based, human; conditions: for Emax: MCF7, highest concentration 250 µM, read-out: Imax (%); for Emax / IC50: MCF-7, 48 h; for IC50: read-out: IC50 (µM), antiproliferative activity against MCF-7
Experimental: The MCF-7 cell line was obtained from Korean Cell Line Bank (KCLB, Seoul, Korea). The cells were cultured in vitro in DMEM (Invitrogen, Paisley, UK) containing 10% fetal bovine serum (Gibco, Thermo Fisher Scientific, Waltham, MA, USA) and 1% penicillin. Cells were treated with different concentrations of compounds (1–15) in a 1:3 the highest concentration was 250 µM (before dilution) and further incubated for 48 hrs. […] We evaluated the antiproliferative activity of compound 8 against a variety of cells.
The MCF-7 cell line was obtained from ATCC. The cells were cultured in vitro in DMEM (Invitrogen, Paisley, UK) containing 10% fetal bovine serum (Gibco, Thermo Fisher Scientific, Waltham, MA) and 1% penicillin. For cytotoxicity assays, MCF-7 cells were seeded into 96-well culture plates at […] in 0.1 mL of DMEM and incubated at 37 °C with 5% CO2 and 90% humidity. After 16 h, the cells were treated with drugs (250 μM, serially diluted up to three-fold) for 48 h. Cell viability was measured using the CELLOMAXTM Viability Assay kit (Precaregene Co., Seoul, Korea). UV absorption at 450 nm wavelength was measured using an Infinite M200 microplate reader (Tecan, Zürich, Switzerland). The IC50 values were calculated using Prism v7.0 (GraphPad Software Inc., La Jolla, CA). The inhibitory activity of the tested compounds was evaluated by an 8-point dose–response curve (DRC) analysis in triplicates.

[2] = system: Hepa1c1c7 cells; experiment: Antiproliferation, Hepa1c1c7; format: cell-based; conditions: Hepa-1c1c7; Liver
[3] = target: T1, HDAC6 (Homo sapiens, UniProt Q9UBN7); experiment: HDAC enzyme inhibition assay, HDAC6; format: biochemical
T1 construct: purchased PBS Biosciences [sic]
T1 sequence (Q9UBN7 1-1215): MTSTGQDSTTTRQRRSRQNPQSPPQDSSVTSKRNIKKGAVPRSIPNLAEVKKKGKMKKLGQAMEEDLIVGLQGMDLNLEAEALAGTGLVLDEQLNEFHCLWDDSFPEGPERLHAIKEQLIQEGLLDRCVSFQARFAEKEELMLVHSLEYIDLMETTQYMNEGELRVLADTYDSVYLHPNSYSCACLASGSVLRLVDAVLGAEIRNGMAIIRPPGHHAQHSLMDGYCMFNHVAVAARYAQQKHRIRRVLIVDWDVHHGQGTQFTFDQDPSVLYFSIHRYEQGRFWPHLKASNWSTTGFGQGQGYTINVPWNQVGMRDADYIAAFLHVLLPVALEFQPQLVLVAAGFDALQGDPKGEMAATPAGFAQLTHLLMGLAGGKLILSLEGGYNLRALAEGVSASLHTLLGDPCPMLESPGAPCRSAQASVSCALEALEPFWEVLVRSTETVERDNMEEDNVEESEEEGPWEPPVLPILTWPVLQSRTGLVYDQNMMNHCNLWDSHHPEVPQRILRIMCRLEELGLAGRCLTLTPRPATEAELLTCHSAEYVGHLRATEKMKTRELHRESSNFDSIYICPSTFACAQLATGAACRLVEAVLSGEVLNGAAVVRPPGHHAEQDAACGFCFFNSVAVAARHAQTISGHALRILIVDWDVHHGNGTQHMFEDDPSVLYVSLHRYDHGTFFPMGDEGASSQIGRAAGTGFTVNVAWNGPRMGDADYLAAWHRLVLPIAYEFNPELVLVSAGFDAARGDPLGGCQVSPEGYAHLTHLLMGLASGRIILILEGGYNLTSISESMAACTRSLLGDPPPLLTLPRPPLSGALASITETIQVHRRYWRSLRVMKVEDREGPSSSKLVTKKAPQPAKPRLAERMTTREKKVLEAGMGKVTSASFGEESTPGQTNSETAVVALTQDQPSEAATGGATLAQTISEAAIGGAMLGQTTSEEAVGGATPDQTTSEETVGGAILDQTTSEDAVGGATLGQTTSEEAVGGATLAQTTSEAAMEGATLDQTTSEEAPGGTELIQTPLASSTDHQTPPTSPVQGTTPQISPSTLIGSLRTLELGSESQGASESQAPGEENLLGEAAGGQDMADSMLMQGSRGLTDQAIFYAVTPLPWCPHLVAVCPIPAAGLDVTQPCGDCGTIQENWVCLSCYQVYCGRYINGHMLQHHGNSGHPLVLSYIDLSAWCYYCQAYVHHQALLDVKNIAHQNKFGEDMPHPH
Experimental: (§1) The compounds were diluted to the indicated concentrations and mixed with HDAC enzymes (HDAC1, HDAC3, HDAC6, HDAC8, HDAC11) and the substrate for 1 h (PBS Biosciences). The fluorescence intensity was measured according to the manufacturer’s instructions.

[4] = target: T2, HDAC4 (Homo sapiens, UniProt P56524); experiment: HDAC enzyme inhibition assay, HDAC4; format: biochemical; conditions: read-out: IC50 (µM) HDAC4 (Class IIa)
T2 construct: purchased PBS Biosciences [sic]
T2 sequence (P56524 whole entry): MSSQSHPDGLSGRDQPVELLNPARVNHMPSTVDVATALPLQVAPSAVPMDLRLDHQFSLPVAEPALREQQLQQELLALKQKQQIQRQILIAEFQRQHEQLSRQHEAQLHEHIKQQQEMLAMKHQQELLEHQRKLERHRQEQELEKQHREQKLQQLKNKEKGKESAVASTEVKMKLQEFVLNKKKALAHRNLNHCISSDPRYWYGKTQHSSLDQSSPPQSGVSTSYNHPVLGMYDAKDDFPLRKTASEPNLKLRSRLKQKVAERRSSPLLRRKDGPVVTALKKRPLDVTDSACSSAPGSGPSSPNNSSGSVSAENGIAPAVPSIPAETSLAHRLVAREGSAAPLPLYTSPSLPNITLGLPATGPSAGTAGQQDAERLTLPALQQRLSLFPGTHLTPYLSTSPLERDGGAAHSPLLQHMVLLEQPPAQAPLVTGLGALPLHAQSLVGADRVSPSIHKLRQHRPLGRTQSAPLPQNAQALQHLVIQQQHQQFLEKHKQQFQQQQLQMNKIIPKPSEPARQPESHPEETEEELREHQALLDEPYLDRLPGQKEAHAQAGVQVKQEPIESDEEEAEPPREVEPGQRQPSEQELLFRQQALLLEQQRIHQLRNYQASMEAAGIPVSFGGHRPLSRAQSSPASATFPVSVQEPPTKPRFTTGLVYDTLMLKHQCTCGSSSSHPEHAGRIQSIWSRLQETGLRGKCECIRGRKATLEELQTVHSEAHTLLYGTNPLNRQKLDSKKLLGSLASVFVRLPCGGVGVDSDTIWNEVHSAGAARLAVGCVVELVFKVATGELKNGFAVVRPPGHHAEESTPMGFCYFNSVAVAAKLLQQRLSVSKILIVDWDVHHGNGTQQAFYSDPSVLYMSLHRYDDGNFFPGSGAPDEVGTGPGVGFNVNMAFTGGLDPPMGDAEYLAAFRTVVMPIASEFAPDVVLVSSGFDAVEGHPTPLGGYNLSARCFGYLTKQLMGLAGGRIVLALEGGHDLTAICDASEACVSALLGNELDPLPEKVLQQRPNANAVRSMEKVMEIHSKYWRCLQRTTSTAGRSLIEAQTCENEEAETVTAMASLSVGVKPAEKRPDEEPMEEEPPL

[5] = system: PANC1 cells; experiment: Antiproliferation, PANC1; format: cell-based; conditions: Homo sapiens, PANC-1; Pancreas
[6] = system: SW620 cells; experiment: Antiproliferation, SW620; format: cell-based; conditions: Homo sapiens, SW-620; Colon
[7] = system: MDA-MB 231 cells; experiment: Antiproliferation, MDA-MB 231; format: cell-based; conditions: Homo sapiens, Breast
[8] = system: N2A cells; experiment: Antiproliferation, N2A; format: cell-based; conditions: Mus musculus, Brain
[9] = system: SKOV3 cells; experiment: Antiproliferation, SKOV3; format: cell-based; conditions: Homo sapiens, SK-OV-3; Ovarian
[10] = system: EMT 6 cells; experiment: Antiproliferation, EMT 6; format: cell-based; conditions: Mus musculus, EMT6; Breast
[11] = system: acetylated tubulin (HDAC6 substrate) in MCF-7 cells; experiment: Western blot of acetylated tubulin in MCF-7; format: cell-based, human
Experimental: (§2) MCF-7 and N2a cell lines were incubated with various concentrations of test agents for 6 h. Cell lysis and Western blot analyses were performed as previously described. Anti-acetylated tubulin antibody and horseradish peroxidase (HRP)-conjugated secondary antibodies (Santa Cruz Biotechnology) were used. Immunoreactive bands were visualized using enhanced chemiluminescence (Millipore, Burlington, MA, USA).
(§3) GAPDH was used as a loading control.

[12] = target: T3, HDAC11 (Homo sapiens, UniProt Q96DB2); experiment: HDAC enzyme inhibition assay, HDAC11; format: biochemical
T3 construct: purchased PBS Biosciences [sic]
T3 sequence (Q96DB2 1-347): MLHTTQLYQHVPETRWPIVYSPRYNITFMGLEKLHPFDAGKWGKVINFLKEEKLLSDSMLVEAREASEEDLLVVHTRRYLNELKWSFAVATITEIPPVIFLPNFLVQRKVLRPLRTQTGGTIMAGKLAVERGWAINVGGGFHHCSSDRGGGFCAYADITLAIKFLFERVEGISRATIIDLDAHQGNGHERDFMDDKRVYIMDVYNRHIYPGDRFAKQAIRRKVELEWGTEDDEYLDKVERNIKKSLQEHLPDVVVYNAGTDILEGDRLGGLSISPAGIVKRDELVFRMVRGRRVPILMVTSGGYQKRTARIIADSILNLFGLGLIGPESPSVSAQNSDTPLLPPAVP
Experimental: as §1

[13] = target: T4, HDAC3 (Homo sapiens, UniProt O15379); experiment: HDAC enzyme inhibition assay, HDAC3; format: biochemical; conditions: read-out: IC50 (µM) HDAC3 (Class I)
T4 construct: purchased PBS Biosciences [sic]
T4 sequence (O15379 whole entry): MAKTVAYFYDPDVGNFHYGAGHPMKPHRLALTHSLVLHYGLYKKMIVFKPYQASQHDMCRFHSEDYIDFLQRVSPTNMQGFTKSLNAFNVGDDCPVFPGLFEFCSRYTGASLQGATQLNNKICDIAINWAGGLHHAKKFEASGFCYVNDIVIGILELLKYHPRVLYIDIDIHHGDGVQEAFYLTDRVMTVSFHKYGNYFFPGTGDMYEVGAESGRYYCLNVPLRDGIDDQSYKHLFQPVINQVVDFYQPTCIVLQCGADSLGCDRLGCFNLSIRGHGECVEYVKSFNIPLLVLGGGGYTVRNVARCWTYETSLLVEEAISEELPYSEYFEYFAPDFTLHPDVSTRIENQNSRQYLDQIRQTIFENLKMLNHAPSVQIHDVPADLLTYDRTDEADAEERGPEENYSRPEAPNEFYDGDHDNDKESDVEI
T4 sequence (Q9Y618 395-489 partner limits assumed): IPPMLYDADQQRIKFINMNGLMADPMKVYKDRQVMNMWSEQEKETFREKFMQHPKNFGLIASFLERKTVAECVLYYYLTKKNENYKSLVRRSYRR
Experimental: as §1

[14] = system: acetylated tubulin (HDAC6 substrate) in N2a cells; experiment: Western blot of acetylated tubulin in N2a; format: cell-based; conditions: 6 h, 10, 2, and 0.2 µM
Experimental: as §2, §3

[15] = target: T5, HDAC8 (Homo sapiens, UniProt Q9BY41); experiment: HDAC enzyme inhibition assay, HDAC8; format: biochemical; conditions: read-out: IC50 (µM) HDAC8 (Class I)
T5 construct: purchased PBS Biosciences [sic]
T5 sequence (Q9BY41 1-377): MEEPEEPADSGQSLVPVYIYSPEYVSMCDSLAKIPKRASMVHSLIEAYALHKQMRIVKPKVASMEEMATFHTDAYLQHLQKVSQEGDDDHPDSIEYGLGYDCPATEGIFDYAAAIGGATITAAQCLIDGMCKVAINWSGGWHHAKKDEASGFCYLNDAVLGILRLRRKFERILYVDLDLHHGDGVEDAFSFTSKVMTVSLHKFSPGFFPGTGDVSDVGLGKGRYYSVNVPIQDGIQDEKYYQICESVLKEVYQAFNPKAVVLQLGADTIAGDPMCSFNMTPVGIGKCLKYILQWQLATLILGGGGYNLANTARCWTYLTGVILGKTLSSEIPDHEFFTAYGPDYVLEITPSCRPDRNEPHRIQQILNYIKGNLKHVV
Experimental: as §1

SMILES: O=C(CSc1nc2ccccc2c(=O)n1Cc1ccccc1[N+](=O)[O-])NO [Compound 5]
melting point: 176 to 179 °C | Emax ([1]; Homo sapiens): 17%

SMILES: COc1ccc(-c2nc3ccccc3c(=O)n2CCCCC(=O)NO)cc1 [Compound 13]
melting point: 173 to 175 °C | IC50 ([1]; Homo sapiens, MCF7, 48 h): 37.3 ± 1.21 µM | Emax ([1]; Homo sapiens): 95.8%

SMILES: O=C(CN1CCN(CCn2c(-c3ccc(F)cc3)nc3ccccc3c2=O)CC1)NO [Compound 11]
melting point: 120 to 122 °C

SMILES: O=C(CSc1nc2ccccc2c(=O)n1Cc1cccc(F)c1)NO [Compound 3]
melting point: 177 to 180 °C | Emax ([1]; Homo sapiens): 24%

SMILES: O=C(/C=C/c1cccc(S(=O)(=O)Nc2ccccc2)c1)NO [Belinostat, reference compound]
IC50 [2]: 10.1 ± 0.9 µM | IC50 ([1]; Homo sapiens, MCF7, 48 h): 2.6 ± 1.4 µM | Emax ([1]; Homo sapiens): 100% | IC50 ([3]; IC50 (µM) HDAC6 (Class IIb)): 0.2 ± 0.01 µM | IC50 [4]: 2.7 ± 0.12 µM | IC50 [5]: 15.7 ± 2.3 µM | IC50 [6]: 14.9 ± 1.2 µM | IC50 [7]: 3.72 ± 0.5 µM | IC50 [8]: 3.66 ± 0.7 µM | IC50 [9]: 32.1 ± 5.5 µM | IC50 [10]: 11.3 ± 2.6 µM

SMILES: O=C(CCCCn1c(-c2ccco2)nc2ccccc2c1=O)NO [Compound 15]
melting point: 195 to 197 °C | Emax ([1]; Homo sapiens): 1.5%

SMILES: O=C(CSc1nc2ccccc2c(=O)n1Cc1ccc(F)c(F)c1)NO [Compound 4]
melting point: 184 to 186 °C | Emax ([1]; Homo sapiens): 23%

SMILES: O=C(CSc1nc2ccccc2c(=O)n1Cc1ccc(F)cc1)NO [Compound 2]
Emax ([1]; Homo sapiens): 11%

SMILES: O=C(CSc1nc2ccccc2c(=O)n1Cc1ccccc1)NO [Compound 1]
melting point: 188 to 191 °C | Emax ([1]; Homo sapiens): 20%

The next lines start with results.

melting point: 138 to 140 °C | IC50 ([1]; Homo sapiens, MCF7, 48 h): 3.4 µM | IC50 [1]: 3.44 ± 1.11 µM | IC50 ([12]; read-out: IC50 (µM) HDAC11 (Class IV)): ~3 µM | Selective Fold (Ratio) HDAC3/ HDAC6 ([3]; ratio of IC50): 7.9 fold and 7.94 fold | Selective Fold (Ratio) HDAC4/ HDAC6 ([3]; ratio of IC50): >29.4 fold | Selective Fold (Ratio) HDAC8/ HDAC6 ([3]; ratio of IC50): 2.3 fold and 2.32 fold | Selective Fold (Ratio) HDAC11/ HDAC6 ([3]; ratio of IC50): >29.4 fold | IC50 ([3]; read-out: IC50 (µM) HDAC6 (Class IIb)): 2.3 µM and 0.3 µM | IC50 [13]: 2.7 ± 0.08 µM | IC50 [4]: > 10 µM | IC50 [5]: 12.8 ± 0.75 µM | IC50 [6]: 0.81 ± 0.01 µM | IC50 [7]: 0.51 ± 0.02 µM | IC50 [15]: 0.8 ± 0.01 µM | IC50 [9]: 4.5 ± 0.1 µM
SMILES: O=C(CCCCSc1nc2ccccc2c(=O)n1Cc1ccc(F)cc1)NO [Compound 8]
acetylation level of tubulin (Western blot) at 10 µM ([11]; 10 µM, cell line not named): increased acetylation level of tubulin | acetylation of tubulin (Western blot) ([11]; MCF-7, 6 h, 10, 2, and 0.2 µM): induced acetylated tubulin levels in a dose-dependent manner | IC50 [2]: 1.3 ± 0.2 µM | Emax ([1]; Homo sapiens): 90.6% | HDAC11 inhibition compared to Belinostat (in words) ([12]; dose-dependent): higher activity against HDAC11 compared to the reference | acetylation of tubulin (Western blot) [14]: induced acetylated tubulin levels in a dose-dependent manner | IC50 [8]: 3.2 ± 0.1 µM | IC50 [10]: 1.3 ± 0.3 µM

melting point: 145 to 147 °C | IC50 ([1]; Homo sapiens, MCF7, 48 h): 36.9 ± 1.12 µM
SMILES: O=C(CCCCSc1nc2ccccc2c(=O)n1Cc1cccc(F)c1)NO [Compound 9]
Emax ([1]; Homo sapiens): 96.8% | antiproliferative activity (in words) ([1]; MCF-7): loss of activity

melting point: 156 to 158 °C | IC50 ([1]; Homo sapiens, MCF7, 48 h): 37.9 ± 1.71 µM
SMILES: O=C(CCCCn1c(-c2ccc(F)cc2)nc2ccccc2c1=O)NO [Compound 14]
Emax ([1]; Homo sapiens): 100%

melting point: 180 to 182 °C | IC50 ([1]; Homo sapiens, MCF7, 48 h): 14.2 ± 1.14 µM
SMILES: O=C(CCCCSc1nc2ccccc2c(=O)n1Cc1ccc(-c2ccccc2)cc1)NO [Compound 10]
Emax ([1]; Homo sapiens): 89.7%

melting point: 184 to 186 °C
SMILES: Cc1ccc(Cn2c(SCC(=O)NO)nc3ccccc3c2=O)cc1 [Compound 6]
Emax ([1]; Homo sapiens): 22%
